“Also recorded” adds a separate entry of the source. Read-outs that look alike come from different tables or passages of the source.
Columns and labels:
NIH3T3 cells = assay: MTT viability assay, non-cancerous NIH3T3 cells; format: cell-based
Method: (§1) The anticancer activities of the exemplary compounds listed in Example 1 were tested against human cervix Hela cells, mammary breast cancer MDA-MB-231 cells, human hepatocellular HepG2 cells, human colorectal HCT116 cells, mammary ductal T47D cells, non-cancerous NIH3T3 cells, dog's kidney MDCK cells, and mouse brain bEnd.3 cells, respectively.

HEYA8 CSCs = assay: CellTiter-Glo viability, HeyA8 cancer stem cells (spheres); format: cell-based; conditions: 5 μM of erastin, 50 μM of artesunate; RSL3 single dose
HeyA8 cells = assay: CellTiter-Glo viability, adherent HeyA8 ovarian cancer cells; format: cell-based
MDA-MB-231 cells = assay: MTT viability assay, MDA-MB-231 cells; format: cell-based
Method: as §1

bEnd.3 cells = assay: MTT viability assay, bEnd.3 cells; format: cell-based, mouse; conditions: mean, n = 3, read-out: IC50 against bEnd.3 cells
Method: as §1

MDCK cells = assay: MTT viability assay, MDCK cells; format: cell-based, dog; conditions: 48 h incubation, mean, n = 3, read-out: IC50 against MDCK cells
Method: as §1

HEK293 cells = assay: MTT viability assay, HEK293 cells; format: cell-based; conditions: mean, n = 3, read-out: IC50 against HEK293 cells
T47D cells = assay: MTT viability assay, T47D cells; format: cell-based
Method: as §1

Hela cells = assay: MTT viability assay, Hela cells; format: cell-based, human; conditions: 48 h incubation, mean, n = 3, read-out: IC50 against Hela cells
Method: as §1

HCT116 cells = assay: MTT viability assay, HCT116 cells; format: cell-based, human; conditions: MTT, 48 h incubation, mean, n = 3, read-out: IC50 against HCT116 cells
Method: as §1

HepG2 cells = assay: MTT viability assay, HepG2 cells; format: cell-based, human; conditions: MTT, 48 h incubation, mean, n = 3, read-out: IC50 against HepG2 cells
Method: as §1

[1] = tested on: MDA-MB-231 xenograft tumors; assay: Mouse xenograft breast tumors (MDA-MB-231); format: in vivo, Nude mice; conditions: mouse, in vivo
Method: FIG. 12A is a graph showing the tumor volume of xenograft tumors versus time after s.c. injection of DMSO, PTX, compound 37b, or compound 48. Nude mice were injected s.c. with MDA-MB-231 cells (10^6) and randomly allocated to one of the six treatment groups (n=5): (i) DMSO, (ii) Paclitaxel (PTX), 5 mg/kg, (iii) compound 37b, 5 mg/kg, (iv) compound 37b, 10 mg/kg, (v) compound 48, 5 mg/kg, or (vi) compound 48, 10 mg/kg. When control animals (DMSO) began to appear tumor ulceration (25 days), all animals in the experiment were sacrificed and photographed.
FIG. 12B are photographs of the tumor from sacrificed animals of different treatment groups after 25 days. FIG. 12C is a graph showing the tumor weight of xenograft tumors versus time after s.c. injection of DMSO, PTX, compound 37b, or compound 48. Data are shown as mean±SEM. * P≤0.05 versus DMSO group. FIG. 12D are photographs showing the morphological observation of mice tissue treated with DMSO, paclitaxel, compound 37b, or compound 48 with H&E staining on heart, liver, kidney, lungs, and spleen tissues (200×).

[2] = tested on: lipid ROS in MDA-MB-231 cells; assay: C11-BODIPY lipid ROS detection in MDA-MB-231 cells; format: cell-based; conditions: 48 5 μM, 37b 1 μM, RSL3 0.5 μM; 6 h incubation
Method: FIG. 11 is a bar graph showing the detection of lipid ROS with compound 48 (5 μM), compound 37b (1 μM), or RSL3 (0.5 μM) by BODIPY 581/591 C11 after 6 h incubation in MDA-MB-231 cells. **P≤0.01 versus DMSO group. Data are plotted as the mean±SD, n=3 biologically independent samples. All P values were determined using two-tailed Student's t-test.
Since lipid peroxidation is the evidence about ferroptosis, C11-BODIPY probe is used to validate the lipid ROS generated by tetraoxanes. It is a ratiometric membrane-targeted probe which changes the emission from 590 nm to 510 nm upon the detection of lipid ROS. Here, MDA-MB-231 cells were treated with 48, 37b and RSL3, respectively. The lipid ROS levels were quantified by flow cytometry. Untreated group gave weak signal in FL1 channel (FIG. 11).

[3] = Mus musculus, NIH3T3, MTT, 48 h incubation, mean, n = 3, read-out: IC50 against NIH3T3 cells
[4] = Homo sapiens, MDA-MB-231, 48 h, MTT, 48 h incubation, mean, n = 3, read-out: IC50 against MDA-MB-231 cells
[5] = MTT, 48 h incubation, mean, n = 3, read-out: IC50 against MDA-MB-231 cells
[6] = MTT, 48 h incubation, mean, n = 3, read-out: IC50 against T47D cells
[7] = Homo sapiens, HEK293, 48 h incubation
[8] = MTT, 48 h incubation, mean, n = 3, read-out: IC50 against NIH3T3 cells
[9] = Mus musculus, BEND3, 48 h incubation
[10] = Homo sapiens, T47D, MTT, 48 h incubation, mean, n = 3, read-out: IC50 against T47D cells

In the case of `C[C@H]1[C@H](OC(=O)CCC(=O)O)O[C@@H]2O[C@@]3(C)CC[C@H]4[C@H](C)CC[C@@H]1[C@@]24OO3` [Artesunate, reference compound], the IC50 (NIH3T3 cells; [3]) is reported as 17.4 µM, the “cytotoxic effect on HEYA8 CSCs at single dose” value (HEYA8 CSCs) is reported as “did not show any cytotoxic effect; also recorded: almost insensitive” and the “cell death of adherent HEYA8 cells” value (HeyA8 cells; high concentration) is reported as roughly 50%. For the same molecule, the IC50 (MDA-MB-231 cells; [4]) was 20.3 µM.
`O=C(CC1CCC2(CC1)OOC1(OO2)C2CC3CC(C2)CC1C3)NCCC[P+](c1ccccc1)(c1ccccc1)c1ccccc1` (centres unmarked) [Compound 6b, (3-(2-((1r,3r,5r,7r)-dispiro[adamantane-2,3′-[1,2,4,5]tetraoxane-6′,1″-cyclohexan]-4″-yl)acetamido)propyl)triphenylphosphonium bromide] gave an IC50 (bEnd.3 cells; 48 h incubation) of 12.3 µM, an IC50 (MDCK cells) of 18.1 µM and an IC50 (HEK293 cells; 48 h incubation) of 1.6 µM. For the same molecule, the IC50 (MDA-MB-231 cells; [5]) was 2.6 µM, the IC50 (T47D cells; [6]) was 4.4 µM and the IC50 (Hela cells) was 2.2 µM.
With `CN(C)CCCNC(=O)OC1CCC2(CC1)OOC1(OO2)C2CC3CC(C2)CC1C3` (centres unmarked) [Compound 30a, (1r,3r,5r,7r)-dispiro[adamantane-2,3′-[1,2,4,5]tetraoxane-6′,1″-cyclohexan]-4″-yl(3-(dimethylamino)propyl)carbamate] the IC50 (MDCK cells; Canis lupus familiaris, MDCK) was 42.8 µM, the IC50 (HEK293 cells; [7]) was 2.5 µM and the IC50 (MDA-MB-231 cells; [4]) was 14.4 µM.
In the case of `O=C(NCCC[P+](c1ccccc1)(c1ccccc1)c1ccccc1)OC1CCC2(CC1)OOC1(OO2)C2CC3CC(C2)CC1C3` (centres unmarked) [Compound 30b, (3-(((((1r,3r,5r,7r)-dispiro[adamantane-2,3′-[1,2,4,5]tetraoxane-6′,1″-cyclohexan]-4″-yl)oxy)carbonyl)amino)propyl)triphenylphosphonium bromide], the IC50 (NIH3T3 cells; [8]) is reported as 5.8 µM, the IC50 (HCT116 cells) is reported as 1.4 µM and the IC50 (HepG2 cells) is reported as 1.2 µM. The IC50 (MDCK cells) was 5.8 µM, the IC50 (HEK293 cells; 48 h incubation) was 1 µM and the IC50 (MDA-MB-231 cells; [5]) was 0.53 µM. For the same molecule, the IC50 (Hela cells) was 2.4 µM.
`CC(C)(C)C1CCC2(CC1)OOC1(CCC(O)CC1)OO2` (centres unmarked) [Compound 37, 12-(tert-butyl)-7,8,15,16-tetraoxadispiro[5.2.59.26]hexadecan-3-ol] was tested, and the IC50 (bEnd.3 cells; [9]) was greater than 100 µM, the IC50 (NIH3T3 cells; [3]) was 7.1 µM and the IC50 (HCT116 cells; Homo sapiens, HCT-116) was 14.4 µM. For the same molecule, the IC50 (HepG2 cells; Homo sapiens, HepG2) was 4.8 µM, the IC50 (MDCK cells; Canis lupus familiaris, MDCK) was greater than 50 µM and the IC50 (HEK293 cells; [7]) was 5.8 µM. For the same molecule, the IC50 (MDA-MB-231 cells; [4]) was 7.4 µM, the IC50 (T47D cells; [10]) was 6.1 µM and the IC50 (Hela cells; Homo sapiens, HeLa) was 15.1 µM.
For `CN(C)CCCNC(=O)OC1CCC2(CC1)OOC1(CCC(C(C)(C)C)CC1)OO2` (centres unmarked) [Compound 37a, 12-(tert-butyl)-7,8,15,16-tetraoxadispiro[5.2.59.26]hexadecan-3-yl(3-(dimethylamino)propyl)carbamate], the IC50 (bEnd.3 cells; [9]) was 10.9 µM, the IC50 (NIH3T3 cells; [3]) was 1.7 µM and the IC50 (HCT116 cells; Homo sapiens, HCT-116) was 4.6 µM. It also gave an IC50 (HepG2 cells; Homo sapiens, HepG2) of 2 µM, an IC50 (MDCK cells; Canis lupus familiaris, MDCK) of 23.7 µM and an IC50 (HEK293 cells; [7]) of 0.8 µM. It also gave an IC50 (MDA-MB-231 cells; [4]) of 2 µM, an IC50 (T47D cells; [10]) of 2.2 µM and an IC50 (Hela cells; Homo sapiens, HeLa) of 3.9 µM.
In the case of `CC(C)(C)C1CCC2(CC1)OOC1(CCC(OC(=O)Oc3ccc([N+](=O)[O-])cc3)CC1)OO2` (centres unmarked) [Compound 37c, 12-(tert-butyl)-7,8,15,16-tetraoxadispiro[5.2.59.26]hexadecan-3-yl(4-nitrophenyl) carbonate], the “abnormal behavior or weight loss during treatment period” value [1] is reported as “no abnormal behavior or weight loss”.
`CC1=CC(=O)C(C(C)(C)CC(=O)N2CCN(C(=O)OC3CCC4(CC3)OOC3(CCC(C(C)(C)C)CC3)OO4)CC2)=C(C)C1=O` (centres unmarked) [Compound 37g, 12-(tert-butyl)-7,8,15,16-tetraoxadispiro[5.2.59.26]hexadecan-3-yl 4-(3-(2,4-dimethyl-3,6-dioxocyclohexa-1,4-dien-1-yl)-3-methylbutanoyl)piperazine-1-carboxylate] showed an IC50 (NIH3T3 cells; [3]) of 26.6 µM, an IC50 (NIH3T3 cells; Mus musculus, NIH3T3, Table 12b, read-out: IC50 NIH3T3) of 26.6 ± 2.6 µM and an IC50 (MDCK cells; Canis lupus familiaris, MDCK) of 22.3 µM. For the same molecule, the IC50 (MDA-MB-231 cells; [4]) was 11 µM, the IC50 (MDA-MB-231 cells; Homo sapiens, MDA-MB-231, Table 12b, read-out: IC50 MDA-MB-231) was 11 ± 0.9 µM and the “selectivity index (IC50 of NIH3T3 divided by IC50 on MDA-MB-231)” value (MDA-MB-231 cells; Table 12b, value in bracket) was “(>2.4)”. The IC50 (T47D cells; [10]) was 3.1 µM, the IC50 (T47D cells; Homo sapiens, T47D, Table 12b, read-out: IC50 T47D) was 3.1 ± 0.7 µM and the “selectivity index (IC50 of NIH3T3 divided by IC50 on T47D)” value (T47D cells; Table 12b, value in bracket) was “(>8.5)”. It also gave an IC50 (Hela cells; Homo sapiens, HeLa) of 11.5 µM.
`CC(C)(C)C1CCC2(CC1)OOC1(CCC(OC(=O)NCCCCO[C@@H]3O[C@H](CO)[C@@H](O)[C@H](O)[C@H]3O)CC1)OO2` (stereo partly drawn) [Compound 37i, 12-(tert-butyl)-7,8,15,16-tetraoxadispiro[5.2.59.26]hexadecan-3-yl(4-(((2R,3R,4S,5S,6R)-3,4,5-trihydroxy-6-(hydroxymethyl)tetrahydro-2H-pyran-2-yl)oxy)butyl)carbamate] showed an IC50 (NIH3T3 cells; [8]) greater than 100 µM, an IC50 (MDCK cells) greater than 50 µM and an IC50 (MDA-MB-231 cells; [5]) of 24.3 µM. The IC50 (T47D cells; [6]) was 13.2 µM and the IC50 (Hela cells) was 28.5 µM.
With `CC(C)(C)C1CCC2(CC1)OOC1(CCC(OC(=O)NCCOCCOCCNC(=O)OC3CCC4(CC3)OOC3(CCC(C(C)(C)C)CC3)OO4)CC1)OO2` (centres unmarked) [Compound 37j, bis(12-(tert-butyl)-7,8,15,16-tetraoxadispiro[5.2.59.26]hexadecan-3-yl) ((ethane-1,2-diylbis(oxy))bis(ethane-2,1-diyl))dicarbamate] the IC50 (NIH3T3 cells; [3]) was greater than 100 µM, the IC50 (MDCK cells; Canis lupus familiaris, MDCK) was greater than 100 µM and the IC50 (MDA-MB-231 cells; [4]) was 23.9 µM. It also gave an IC50 (T47D cells; [10]) of 10.6 µM and an IC50 (Hela cells; Homo sapiens, HeLa) of 30.6 µM.
`CCOc1ccccc1-n1c(C(C)N2CCN(C(=O)COc3ccc(Cl)cc3)CC2)nc2ccccc2c1=O` (centres unmarked) [Erastin, reference compound] was tested, and the IC50 (NIH3T3 cells; [3]) was 0.29 µM, the “cytotoxic effect on HEYA8 CSCs at single dose” value (HEYA8 CSCs) was “did not show any cytotoxic effect; also recorded: almost insensitive” and the IC50 (MDA-MB-231 cells; [4]) was 1.3 µM.
In the case of `COC(=O)c1ccc([C@@H]2c3[nH]c4ccccc4c3C[C@@H](C(=O)OC)N2C(=O)CCl)cc1` [RSL3, reference compound], the “lipid ROS (BODIPY 581/591 C11, FL1, flow cytometry)” value [2] is reported as “fluorescence enhancement in FL1 was observed”, the “selectivity between non-cancerous cells and cancer cells” value (NIH3T3 cells) is reported as “more cytotoxic to non-cancerous cells than cancer cells” and the IC50 (NIH3T3 cells; [8]) is reported as 0.028 µM. The IC50 (NIH3T3 cells; text b507, read-out: IC50 on NIH3T3 cells) was 0.0283 ± 0.0086 µM, the “elimination of adherent HEYA8 cells” value (HeyA8 cells; 5 μM) was “eliminate the majority of adherent HEYA8 cells” and the IC50 (MDA-MB-231 cells; [5]) was 0.041 µM.
